The series in a line: molar enthalpy of vaporization or sublimation. The following applies: Liquid, TGA.

These results are taken from the NIST ThermoML archive (doi:10.1016/j.tca.2013.04.003).

± gives the expanded uncertainty stated by the source.

In the case of `CCn1cc[n+](C)c1.[Cl-]` [1-ethyl-3-methylimidazolium chloride], the molar enthalpy (432.1 K) was determined as 30.3 ± 0.717 kcal/mol. As to `CCCCCCn1cc[n+](C)c1.[Cl-]` [1-hexyl-3-methylimidazolium chloride], the molar enthalpy (432.4 K) amounted to 34.4 ± 0.717 kcal/mol.
